Reference: ChEMBL document CHEMBL4627346, “Ultrasound assisted rapid synthesis of mefenamic acid based indole derivatives under ligand free Cu-catalysis: Their pharmacological evaluation” (Bioorg Med Chem Lett, 2020)

What was measured:
[1] = target: T1, 3',5'-cyclic-AMP phosphodiesterase 4B (Homo sapiens, UniProt Q07343); test: Inhibition of recombinant human PDE4B expressed in baculovirus infected Sf9 cells at 10 uM using [3H] cAMP as substrate after 30 min by scintillation proximity assay relative to control
[2] = target: T2, 3',5'-cyclic-AMP phosphodiesterase 4D (Homo sapiens, UniProt Q08499); test: Inhibition of PDE4D2 (unknown origin) at 30 uM relative to control
[3] = Intrinsic clearance in rat liver microsomes at 5 uM after 60 mins; type: ADME, Microsome; conditions: read-out: CLH
[4] = Metabolic stability in rat liver microsomes assessed as parent compound remaining at 5 uM after 60 mins; type: ADME, Microsome; conditions: read-out: Stability
CAL-27 = test: Antiproliferative activity against human CAL27 cells assessed as growth inhibition at 10 uM incubated for 72 hrs by sulforhodamine B assay; type: functional; conditions: CAL-27, 72 h, read-out: GI
[5] = Half life in rat liver microsomes at 5 uM incubated for 60 mins; type: ADME, Microsome
Homo sapiens = organism: Homo sapiens; test: Selectivity ratio of inhibition of PDE4D2 (unknown origin) to inhibition of recombinant human PDE4B expressed in baculovirus infected Sf9 cells using [3H] cAMP as substrate after 30 min
[6] = target: T1, 3',5'-cyclic-AMP phosphodiesterase 4B; test: Inhibition of recombinant human PDE4B expressed in baculovirus infected Sf9 cells using [3H] cAMP as substrate after 30 min by scintillation proximity assay
[7] = target: T2, 3',5'-cyclic-AMP phosphodiesterase 4D; test: Inhibition of PDE4D2 (unknown origin) at 10 uM relative to control
Phosphodiesterase 4 = Phosphodiesterase 4 (Homo sapiens, UniProt P27815+Q08499+Q07343+Q08493); test: Inhibition of PDE4 (unknown origin) assessed as inhibition of TNF-alpha release; type: protein assay
[8] = target: T1, 3',5'-cyclic-AMP phosphodiesterase 4B; conditions: Sf9, 10 nM
Description: Inhibition of recombinant human PDE4B expressed in baculovirus infected Sf9 cells at 10 nM using [3H] cAMP as substrate after 30 min by scintillation proximity assay relative to control

[9] = target: T2, 3',5'-cyclic-AMP phosphodiesterase 4D; test: Inhibition of PDE4D2 (unknown origin) at 10 nM relative to control

T2 sequence (Q08499 whole entry): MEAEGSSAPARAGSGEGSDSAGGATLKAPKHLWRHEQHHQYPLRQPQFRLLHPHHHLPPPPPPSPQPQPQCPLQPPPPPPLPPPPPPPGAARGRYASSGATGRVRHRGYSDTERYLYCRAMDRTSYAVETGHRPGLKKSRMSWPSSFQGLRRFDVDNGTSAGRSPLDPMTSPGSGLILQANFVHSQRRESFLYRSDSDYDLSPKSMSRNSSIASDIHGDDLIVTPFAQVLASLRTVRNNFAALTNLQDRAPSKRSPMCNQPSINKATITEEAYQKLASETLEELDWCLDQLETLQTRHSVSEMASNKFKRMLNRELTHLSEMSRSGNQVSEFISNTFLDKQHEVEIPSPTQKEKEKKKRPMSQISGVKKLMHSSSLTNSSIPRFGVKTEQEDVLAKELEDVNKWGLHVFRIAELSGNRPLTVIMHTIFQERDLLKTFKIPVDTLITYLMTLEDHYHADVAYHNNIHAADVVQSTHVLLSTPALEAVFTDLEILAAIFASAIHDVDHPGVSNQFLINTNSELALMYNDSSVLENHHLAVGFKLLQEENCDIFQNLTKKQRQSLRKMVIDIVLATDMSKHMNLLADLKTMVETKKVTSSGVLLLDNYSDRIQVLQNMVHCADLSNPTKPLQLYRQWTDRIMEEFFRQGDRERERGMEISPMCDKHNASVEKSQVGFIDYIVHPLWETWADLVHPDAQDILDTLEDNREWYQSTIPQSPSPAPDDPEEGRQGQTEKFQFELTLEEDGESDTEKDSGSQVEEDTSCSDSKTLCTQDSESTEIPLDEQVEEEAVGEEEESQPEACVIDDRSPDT
T1 sequence (Q07343 whole entry): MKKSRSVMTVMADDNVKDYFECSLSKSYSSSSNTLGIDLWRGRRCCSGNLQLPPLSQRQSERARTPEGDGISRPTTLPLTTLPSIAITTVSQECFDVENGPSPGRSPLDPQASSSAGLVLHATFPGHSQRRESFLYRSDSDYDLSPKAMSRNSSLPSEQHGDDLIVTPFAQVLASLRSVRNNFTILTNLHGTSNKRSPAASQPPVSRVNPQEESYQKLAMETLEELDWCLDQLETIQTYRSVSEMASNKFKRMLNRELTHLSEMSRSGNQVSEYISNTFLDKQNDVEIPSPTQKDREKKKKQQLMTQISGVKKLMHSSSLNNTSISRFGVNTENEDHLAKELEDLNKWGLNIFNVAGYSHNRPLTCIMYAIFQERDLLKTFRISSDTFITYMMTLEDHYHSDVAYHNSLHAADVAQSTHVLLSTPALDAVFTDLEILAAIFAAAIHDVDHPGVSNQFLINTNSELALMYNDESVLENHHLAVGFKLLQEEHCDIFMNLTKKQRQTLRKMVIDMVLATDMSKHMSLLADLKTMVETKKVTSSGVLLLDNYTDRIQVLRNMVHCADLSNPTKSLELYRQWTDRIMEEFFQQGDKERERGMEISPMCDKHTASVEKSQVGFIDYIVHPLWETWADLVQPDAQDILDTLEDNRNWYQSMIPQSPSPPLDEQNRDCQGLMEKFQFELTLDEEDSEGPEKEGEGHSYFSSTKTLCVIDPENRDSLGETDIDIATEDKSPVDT

Row | Structure (SMILES) | inhibition [1] [%] | inhibition at 30 µM [2] [%] | further results
1 | Cc1cccc(Nc2ccccc2C(=O)O)c1C [MEFENAMIC ACID] | 38.9 | 35.5 | –
2 | Cc1cc(C)c2c(c1)cc(COCc1ccccc1Nc1cccc(C)c1C)n2S(C)(=O)=O | 37.3 | – | –
3 | Cc1cccc(Nc2ccccc2COCc2cc3cc(F)ccc3n2S(C)(=O)=O)c1C | 68 | 42 | microsomal CLint at 5 µM [3]: 25.2 µL/min/mg; remaining at 1 h, 5 µM [4]: 64.9%; inhibition of growth at 10 µM (CAL-27): 55.6%; half-life at 5 µM [5]: 1.83 h; Selectivity ratio (Homo sapiens): 4.5; IC50 [6]: 1.34 µM; inhibition at 10 µM [7]: 15%; IC50 (Phosphodiesterase 4): 5.81 µM; inhibition (Phosphodiesterase 4): Dose-dependent effect
4 | Cc1cccc(Nc2ccccc2COCc2cc3cc(Br)ccc3n2S(C)(=O)=O)c1C | 40.4 | – | –
5 | Cc1cccc(Nc2ccccc2COCc2cc3ccccc3n2S(C)(=O)=O)c1C | 61.5 | 40.9 | IC50 [6]: 1.76 µM
6 | Cc1cccc(Nc2ccccc2COCc2cc3cc(Cl)ccc3n2S(C)(=O)=O)c1C | 54.9 | 33.6 | IC50 [6]: 4.48 µM
7 | O=C(Nc1c(Cl)cncc1Cl)c1ccc(OC(F)F)c(OCC2CC2)c1 [ROFLUMILAST] | – | – | inhibition [8]: 91.6%; inhibition at 0.01 µM [9]: 88.3%
8 | Cc1ccc2c(c1)cc(COCc1ccccc1Nc1cccc(C)c1C)n2S(C)(=O)=O | 55.1 | 38.9 | IC50 [6]: 4.13 µM
9 | Cc1ccc(S(=O)(=O)n2c(COCc3ccccc3Nc3cccc(C)c3C)cc3cc(C)cc(C)c32)cc1 | 23.1 | – | –
10 | Cc1ccc(S(=O)(=O)n2c(COCc3ccccc3Nc3cccc(C)c3C)cc3ccccc32)cc1 | 39.9 | – | –

Second part, led by results:

Row | inhibition [1] [%] | inhibition at 30 µM [2] [%] | Structure (SMILES) | further results
11 | 24.6 | – | Cc1ccc(S(=O)(=O)n2c(COCc3ccccc3Nc3cccc(C)c3C)cc3cc(Br)ccc32)cc1 | –
12 | 32.1 | – | CCc1ccc2c(c1)cc(COCc1ccccc1Nc1cccc(C)c1C)n2S(=O)(=O)c1ccc(C)cc1 | –
13 | 34.6 | – | Cc1ccc(S(=O)(=O)n2c(COCc3ccccc3Nc3cccc(C)c3C)cc3cc(F)ccc32)cc1 | –
14 | 36.2 | – | Cc1ccc(S(=O)(=O)n2c(COCc3ccccc3Nc3cccc(C)c3C)cc3cc(C)ccc32)cc1 | –
15 | 26.8 | – | Cc1ccc(S(=O)(=O)n2c(COCc3ccccc3Nc3cccc(C)c3C)cc3cc(Cl)ccc32)cc1 | –
